Columns and labels:
Cathepsin S = Cathepsin S (Homo sapiens, UniProt P25774); experiment: Cathepsin S inhibition assay (fluorogenic peptide substrate); format: biochemical; conditions: Table II, compounds of Formula I; read-out: Ki Cat. S
Procedure, shortened: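 Ki values come from nonlinear fitting of inhibited hydrolysis rates, taking free and total inhibitor concentrations as equal. Rates measured as rising fluorescence at 380/450 nm after reaction start with 50 μM final acetyl-HPVK-aminocarbamoylcoumarin.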

Cathepsin K = biological target: T1, Cathepsin K (Homo sapiens, UniProt P43235); experiment: Cathepsin K inhibition assay (fluorogenic peptide substrate); selectivity ratio vs cathepsin S; format: biochemical; conditions: ratio of cathepsin K inhibition constant to cathepsin S inhibition constant; Table II
T1 sequence (P43235 115-329): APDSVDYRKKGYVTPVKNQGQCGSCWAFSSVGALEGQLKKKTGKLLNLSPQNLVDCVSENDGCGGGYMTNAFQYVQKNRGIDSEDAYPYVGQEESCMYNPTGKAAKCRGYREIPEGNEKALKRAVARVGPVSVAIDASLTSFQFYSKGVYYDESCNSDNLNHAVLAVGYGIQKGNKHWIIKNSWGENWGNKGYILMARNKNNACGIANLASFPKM
Procedure, shortened: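 Fluorogenic kinetic assay, started with acetyl-Lys-His-Pro-Lys-aminocarbamoylcoumarin at 40 μM final, hydrolysis followed at ex 380/em 450 nm. Apparent inhibition constants from progress curves, converted to competitive inhibition constants. Selectivity expressed as isozyme inhibition constant divided by cathepsin S inhibition constant.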

Chain of Cathepsin S (P25774 115-331, species assumed): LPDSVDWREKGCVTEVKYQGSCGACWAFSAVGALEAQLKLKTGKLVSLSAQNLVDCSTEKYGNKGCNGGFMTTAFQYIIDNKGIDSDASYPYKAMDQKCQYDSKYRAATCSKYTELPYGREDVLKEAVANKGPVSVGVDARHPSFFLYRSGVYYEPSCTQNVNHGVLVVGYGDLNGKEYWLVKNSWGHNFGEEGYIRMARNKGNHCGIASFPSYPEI

Row | Ki (Cathepsin S) [nM] | Selectivity for Cat. S over Cat. K (Cathepsin K) | Structure (SMILES)
1 | < 1000 | ++ (++, >100) | COc1ccc(NCCNC(=O)[C@H](Cc2ccc(-c3cc(OC)ccc3OC)cc2)NC(=O)c2cccc(C)c2)cc1 [Compound 285, (S)-N-{2-(2′,5′-Dimethoxy-biphenyl-4-yl)-1-[2-(4-methoxy-phenylamino)-ethylcarbamoyl]-ethyl}-3-methyl-benzamide]
2 | < 10000 | + (+, >10) | COc1ccc(NCCNC(=O)[C@H](Cc2ccc(-c3cc(Cl)ccc3Cl)cc2)NC(=O)c2cccc(C)c2)cc1 [Compound 286, (S)-N-{2-(2′,5′-Dichloro-biphenyl-4-yl)-1-[2-(4-methoxy-phenylamino)-ethylcarbamoyl]-ethyl}-3-methyl-benzamide]
3 | < 1000 | ++ (++, >100) | COc1ccc(NCCNC(=O)[C@H](Cc2ccc(-c3ccc(N(C)C)cc3)cc2)NC(=O)c2cccc(C)c2)cc1 [Compound 287, (S)-N-{2-(4′-Dimethylamino-biphenyl-4-yl)-1-[2-(4-methoxy-phenylamino)-ethylcarbamoyl]-ethyl}-3-methyl-benzamide]
4 | < 1000 | ++ (++, >100) | COc1ccc(NCCNC(=O)[C@H](Cc2ccc(-c3ccccc3C(C)=O)cc2)NC(=O)c2cccc(C)c2)cc1 [Compound 288, (S)-N-{2-(2′-Acetyl-biphenyl-4-yl)-1-[2-(4-methoxy-phenylamino)-ethylcarbamoyl]-ethyl}-3-methyl-benzamide]
5 | < 1000 | ++ (++, >100) | COc1ccc(NCCNC(=O)[C@H](Cc2ccc(-c3ccc(O)cc3)cc2)NC(=O)c2cccc(C)c2)cc1 [Compound 289, (S)-N-{2-(4′-Hydroxy-biphenyl-4-yl)-1-[2-(4-methoxy-phenylamino)-ethylcarbamoyl]-ethyl}-3-methyl-benzamide]
6 | < 100 | +++ (+++, >1000) | COc1ccc(NCCNC(=O)[C@H](Cc2ccc(-c3cccc(C(C)=O)c3)cc2)NC(=O)c2cccc(C)c2)cc1 [Compound 290, (S)-N-{2-(3′-Acetyl-biphenyl-4-yl)-1-[2-(4-methoxy-phenylamino)-ethylcarbamoyl]-ethyl}-3-methyl-benzamide]
7 | < 1000 | ++ (++, >100) | COc1ccc(NCCNC(=O)[C@H](Cc2ccc(-c3cnc(OC)nc3OC)cc2)NC(=O)c2cccc(C)c2)cc1 [Compound 291, (S)-N-{2-[4-(2,4-Dimethoxy-pyrimidin-5-yl)-phenyl]-1-[2-(4-methoxy-phenylamino)-ethylcarbamoyl]-ethyl}-3-methyl-benzamide]
8 | < 100 | +++ (+++, >1000) | COc1ccc(NCCNC(=O)[C@H](Cc2ccc(-c3ccc(OC)nc3)cc2)NC(=O)c2cccc(C)c2)cc1 [Compound 292, (S)-N-{1-[2-(4-Methoxy-phenylamino)-ethylcarbamoyl]-2-[4-(6-methoxy-pyridin-3-yl)-phenyl]-ethyl}-3-methyl-benzamide]
9 | < 100 | ++ (++, >100) | CS(=O)(=O)c1ccc(C(=O)N[C@@H](CC2CCCCC2)C(=O)NCCNc2ccc(F)cc2)s1 [Compound 293, 5-Methanesulfonyl-thiophene-2-carboxylic acid (S)-{2-cyclohexyl-1-[2-(4-fluoro-phenylamino)-ethylcarbamoyl]-ethyl}-amide]
10 | < 100 | ++ (++, >100) | C[C@H](C(=O)N[C@@H](CC1CCCCC1)C(=O)NCCNc1ccc(F)cc1)c1ccccc1 [Compound 294, N-(S)-{2-cyclohexyl-1-[2-(4-fluoro-phenylamino)-ethylcarbamoyl]-ethyl}-2-(S)-phenyl-propionamide]
11 | < 1000 | ++ (++, >100) | O=C(N[C@@H](CC1CCCCC1)C(=O)NCCNc1ccc(F)cc1)c1ccnnc1 [Compound 295, Pyridazine-4-carboxylic acid (S)-{2-cyclohexyl-1-[2-(4-fluoro-phenylamino)-ethylcarbamoyl]-ethyl}-amide]
12 | < 100 | +++ (+++, >1000) | CS(=O)(=O)c1cccc(C(=O)N[C@@H](CC2CCCCC2)C(=O)NCCNc2ccc(F)cc2)c1 [Compound 296, N-(S)-{2-cyclohexyl-1-[2-(4-fluoro-phenylamino)-ethylcarbamoyl]-ethyl}-3-methanesulfonyl-benzamide]
13 | < 1000 | ++ (++, >100) | O=C(Cc1nnn[nH]1)N[C@@H](CC1CCCCC1)C(=O)NCCNc1ccc(F)cc1 [Compound 297, 3-Cyclohexyl-N-[2-(4-fluoro-phenylamino)-ethyl]-2-(S)-(2-1H-tetrazol-5-yl-acetylamino)-propionamide]
14 | < 100 | ++ (++, >100) | O=C(N[C@@H](CC1CCCCC1)C(=O)NCCNc1ccc(F)cc1)C1CC1 [Compound 298, Cyclopropanecarboxylic acid (S)-{2-cyclohexyl-1-[2-(4-fluoro-phenylamino)-ethylcarbamoyl]-ethyl}-amide]
15 | < 100 | + (+, >10) | CS(=O)(=O)Nc1ccc(C(=O)N[C@@H](CC2CCCCC2)C(=O)NCCNc2ccc(F)cc2)cc1 [Compound 299, N-(S)-{2-cyclohexyl-1-[2-(4-fluoro-phenylamino)-ethylcarbamoyl]-ethyl}-4-methanesulfonylamino-benzamide]
16 | < 100 | ++ (++, >100) | COc1ccc(NCCNC(=O)[C@H](Cc2ccc(Oc3ccc(Cl)cc3)cc2)NC(=O)c2cccc(C)c2)cc1 [Compound 300, (S)-N-{2-[4-(4-Chloro-phenoxy)-phenyl]-1-[2-(4-methoxy-phenylamino)-ethylcarbamoyl]-ethyl}-3-methyl-benzamide]
17 | < 100 | ++ (++, >100) | COc1ccc(CC(=O)N[C@@H](CC2CCCCC2)C(=O)NCCNc2ccc(F)cc2)cc1 [Compound 301, 3-Cyclohexyl-N-[2-(4-fluoro-phenylamino)-ethyl]-2-(S)-[2-(4-methoxy-phenyl)-acetylamino]-propionamide]
18 | < 100 | ++ (++, >100) | O=C(Cc1cccc(Cl)c1)N[C@@H](CC1CCCCC1)C(=O)NCCNc1ccc(F)cc1 [Compound 302, 2-(S)-[2-(3-Chloro-phenyl)-acetylamino]-3-cyclohexyl-N-[2-(4-fluoro-phenylamino)-ethyl]-propionamide]
19 | < 100 | +++ (+++, >1000) | Cc1ccccc1CC(=O)N[C@@H](CC1CCCCC1)C(=O)NCCNc1ccc(F)cc1 [Compound 304, 3-Cyclohexyl-N-[2-(4-fluoro-phenylamino)-ethyl]-2-(S)-(2-o-tolyl-acetylamino)-propionamide]
20 | < 100 | ++ (++, >100) | O=C(Cc1ccc(Cl)cc1)N[C@@H](CC1CCCCC1)C(=O)NCCNc1ccc(F)cc1 [Compound 305, 2-(S)-[2-(4-Chloro-phenyl)-acetylamino]-3-cyclohexyl-N-[2-(4-fluoro-phenylamino)-ethyl]-propionamide]

Row | Structure (SMILES) | Ki (Cathepsin S) [nM] | Selectivity for Cat. S over Cat. K (Cathepsin K)
21 | O=C(Cc1ccccc1)N[C@@H](CC1CCCCC1)C(=O)NCCNc1ccc(F)cc1 [Compound 303, 3-Cyclohexyl-N-[2-(4-fluoro-phenylamino)-ethyl]-2-(S)-phenylacetylamino-propionamide] | < 100 | ++ (++, >100)
